# Reference: US20120058133A1, “INHIBITION OF TRNA SYNTHETASES AND THERAPEUTIC APPLICATIONS THEREOF” (President and Fellows of Harvard College, priority 2009, published 2012)
# Key:
# [1] = Cell-based assays (not specified)
# [2] = tested on: translation in rabbit reticulocyte lysate; assay: In vitro translation in rabbit reticulocyte lysate (RRL); format: biochemical; settings: for translation of luciferase RNA in RRL: standard amino acid mix
# Procedure: FIG. 23. HF and FF inhibit prolyl tRNA synthetase activity in vitro. […] Rabbit reticulocyte lysate (RRL) was incubated with luciferase mRNA and translation quantitated in a luminescence assay. A high concentration of mixed or individual amino acids (1 mM of each) was added to rescue translational inhibition. AA Mix 1: Asn, Arg, Val, Glu, Gly; AA Mix2: Lys, Ile, Tyr, Asp, Trp; Mix 3: His, Met, Leu, Ala, Thr; Mix 4: Ser, Phe, Pro, Gln. […] Note log scale of y axis.
# Inhibitors (FIG. 22) and proline were assayed as described in FIG. 23A. Note log scale at Y axis. Error bars reflect standard deviation of triplicate determinations.
# Short myc-tagged polypeptides of identical sequence (see Example 9, “Materials and Methods”) with the exception that NoPro lacks proline, while ProPro contains a proline dipeptide, were translated in RRL in the presence of indicated inhibitors. Translation was examined by anti-myc Western blot.
# Note log scale of Y axis.
# Translation in vitro was performed using rabbit reticulocyte lysates and luciferase mRNA as template. Translation was measured as arbitrary units of luciferase activity using a luminometer based luminescence assay. Log scale presentation of background-subtracted data is shown.
# [3] = tested on: murine CD4+ CD25− T cells; assay: Th17 differentiation of activated CD4+ CD25− T cells (TGFβ plus IL-6; IL-17+ IFNγ− cells); format: cell-based, mouse; settings: for IL-17 production / Th17 differentiation: 0.2 mM L-tryptophanol
# Procedure: Purified CD4^+ CD25^− T cells were activated in vitro as previously described (Djuretic et al., Nat. Immunol. 8:145, 2007) using 0.3 μg/ml hamster anti-mouse CD3 (clone 145-2C11) (ATCC—Manassas, Va.) and 0.5 μg/ml hamster anti-mouse CD28 (BD Pharmingen—San Jose, Calif.). Activated cell cultures were differentiated using the following combinations of cytokines and antibodies: iTreg-recombinant human TGFβ1 (3 ng/ml—R&D systems, Minneapolis, Minn.), Th17-TGFβ1 (3 ng/ml) plus recombinant mouse IL-6 (30 ng/ml—R&D systems). Th1 and Th2 differentiation was performed as previously described (Djuretic et al., Nat. Immunol. 8:145, 2007). Human IL-2 supernatant (National Cancer Institute) was used in culture at 0.01 U/ml and was added at 48 hours-post activation when T cells were split into tissue culture wells lacking CD3 and CD28 antibodies, with the exception of Th17 cultures that were maintained in the absence of exogenous IL-2. CD8^+ T cells were activated with 1 μg/ml anti-CD3 and 1 μg/ml anti-CD28 and were expanded in 0.1 U/ml IL-2 until day 6 post activation. CD43-depleted B cells were activated in vitro by culturing with 25 μg/ml LPS (Sigma—St. Louis, Mo.) for 3-4 days in the presence or absence of TGFβ. All reagents (see below) were added at the time of T cell activation and again at 48 hours post activation unless indicated otherwise. For some experiments, purified CD4^+ CD25^− T cells, CD8^+ T cells or B cells were labeled with 1 μM CFSE (Invitrogen) prior to activation in accordance with manufacturer's instructions. Human T cell activation was performed by plating purified monocytes in a 96-well flat bottom plate at a concentration of 2×10^4 cells per well in complete medium overnight. 10^5 purified human memory T cells were added to monocyte cultures in the presence of soluble anti-CD3/anti-CD28 beads (Dynabeads, Invitrogen). T cells were expanded in the presence HF or MAZ1310 for up to 6 days.
# MAZ1310 (Kamberov, Ph.D. Dissertation, Harvard University, 2008) was generated by chemical derivatization of halofuginone and was used at equal concentrations as a negative control. HF and MAZ1310 were prepared as 100 mM stock solutions in DMSO and diluted to the indicated concentrations. SB-431542 (Inman et al., Mol. Pharmacol. 62:65, 2002) (Tocris bioscience—Ellisville, Mo.) was prepared as a 10 mM stock solution in DMSO and was used in culture at 10 μM. L-tryptophanol was prepared as a 20 mM stock solution in 0.1 M NaOH, pH 7.4 and was used at 0.2 mM. For amino acid starvation experiments, T cells were activated and differentiated as above in D-MEM medium without L-cysteine and L-methionine (Invitrogen—Carlsbad, Calif.), or D-MEM medium without L-leucine. Stocks containing 20 mM L-cysteine (Sigma—St. Louis, Mo.) plus 10 mM L-methionine (Sigma), or 400 mM L-leucine (Sigma) were prepared in ddH2O, pH 1.0 and were added to medium at the indicated concentrations.
# For detection of intracellular cytokines in murine cells, cultured T or B cells were stimulated with 10 nM PMA (Sigma) and […] (Sigma) for 4-5 hours in the presence of 10 mM brefeldin A (Sigma). Stimulated cells were harvested, washed with PBS and fixed with PBS plus 4% paraformaldehyde at room temperature for 20 minutes. Cells were then washed with PBS, permeabilized with PBS supplemented with 1% BSA and 0.5% saponin (Sigma) at room temperature for 10 minutes before cytokine-specific antibodies were added and incubated with cells for an additional 20 minutes at room temperature.
# TGFβ signaling = assay: Lymphocyte responses to TGFβ (Smad phosphorylation and others); format: cell-based, mouse; settings: low dose HF; 10 μM SB-431542
# Procedure: FIG. 8. […] FIG. 8A is a set of FACS analyses of CD4^+ CD25^− T cells activated in Th1 or Th2 polarizing conditions, either in the presence or absence of TGFβ. DMSO, 10 nM HF, 10 nM MAZ1310, or 10 μM SB-431542 added as indicated at the time of activation. Intracellular cytokine staining was performed on expanded T cells on day 5.
# FIG. 8B is a set of FACS analyses of CD8^+ T cells activated in the presence or absence of TGFβ and cultured with DMSO, 10 nM HF, 10 nM MAZ1310, or 10 μM SB-431542. Expanded cells were restimulated on day 5 and intracellular staining was performed.
# FIG. 8C is a set of FACS analyses of CFSE-labeled B cells activated by LPS stimulation in the presence or absence of TGFβ plus DMSO, 10 nM HF, 10 nM MAZ1310, or 10 μM SB-431542. Intracellular IL-6 production in B cells restimulated with PMA plus ionomycin, or cell-surface IgA expression was determined 4 days after activation.
# FIG. 8D depicts western blot analyses of purified CD4^+ CD25^− T cells treated with DMSO, 40 nM MAZ1310, titrating concentrations of HF (2.5-40 nM) or 10 μM SB-431542 for 30 minutes in complete medium supplemented with 0.1% fetal calf serum. T cells were then activated in the presence or absence of 3 ng/ml TGFβ. Whole cell extracts were prepared after 1 hour of stimulation and western blot analyses were performed using the indicated antibodies. […]
# [4] = tested on: GCN2 phosphorylation / AAR pathway; assay: AAR pathway activation in MEFs (GCN2, eIF2a phosphorylation, CHOP); format: cell-based, mouse
# Procedure: FIG. 24. Activation of the AAR in cells by HF/FF occurs through inhibition of proline utilization. FIG. 24A is a gel showing HF-induction of the AAR pathway is reversed by proline. MEFs were treated with the indicated concentration of HF or FF in the presence or absence of 2 mM Proline for 2 hours (left) or treated with 1 μM borrelidin in the presence or absence of 2 mM Threonine for 2 hours (right). Cells were lysed and assessed by anti-pGCN2 or anti-GCN2 Western blot. Data are representative of three separate experiments.
# FIG. 24B is a gel showing HF induction of eIF2a phosphorylation and CHOP expression is GCN2 dependent. Wild Type or GCN2−/− MEFs were treated with 50 nM HF in the presence or absence of 2 mM proline. Cells were lysed at 2 hours post-HF addition (peIF2a) or 6 hours post-HF addition (CHOP) and analyzed for phosphoprotein or total protein levels by Western blot.
smiles,measurement,setting,value
CC(C)(C)OC(=O)N1CCC[C@H](O)[C@H]1CC(=O)Cn1cnc2cc(Br)c(Cl)cc2c1=O [MAZ1310],activity in cell-based assays,[1],lack activity
same,translation of luciferase RNA in RRL,[2],no activity
N[C@H](CO)Cc1c[nH]c2ccccc12 [L-tryptophanol],IL-17 production / Th17 differentiation,[3],impaired IL-17 production
same,IL-17 production / Th17 differentiation,[3]; listed as tryptophanol,inhibited Th17 differentiation
same,Th17 differentiation,[3]; 1 mM Tryptophanol,inhibits Th17 differentiation
NC(=O)c1ccc(-c2nc(-c3ccc4c(c3)OCO4)c(-c3ccccn3)[nH]2)cc1 [SB-431542],TGFβ-induced Smad phosphorylation and other lymphocyte responses to TGFβ,TGFβ signaling,abrogated all responses to TGFβ
CC(=O)N1CCC[C@H](O)[C@H]1CC(=O)Cn1cnc2cc(Br)c(Cl)cc2c1=O [MAZ1442],activity in cell-based assays,[1],lack activity
same,translation of luciferase RNA in RRL,[2],no activity
"O=C(C[C@H]1NCCC[C@@H]1O)Cn1cnc2ccccc2c1=O [FF, febrifugine]",translation of NoPro polypeptide,[2],had no effect on the translation of NoPro
same,translation of ProPro polypeptide,[2],prevented translation of ProPro
same,rescue of translation inhibition by added purified EPRS,[2]; 80 ng or 0.5 μg EPRS,rescued HF/FF-inhibition of protein translation
same,rescue of translation inhibition by added amino acids,[2]; excess amino acids (1-2 mM),only proline could restore translation
same,translation of luciferase RNA in RRL,[2],inhibited the translation of luciferase RNA
same,reversal of GCN2 phosphorylation by cognate amino acid,[4]; 2 mM proline or 2 mM threonine,abrogated by the addition of 2 mM proline
same,GCN2 phosphorylation in fibroblasts,"[4]; 2 hours, borrelidin 1 μM",Stimulation of GCN2 phosphorylation
